Source: patent publication US11241434B2, “Compositions and methods for improving cognition in a subject” (Yale University, priority 2013, dated 2022)

Tests used:
[1] = system: mice with closed head injury (CHI) and chronic variable stress (CVS); experiment: Immunohistochemistry of cerebral cortex after head injury plus stress; type: in vivo, mouse; conditions: subacute TBI/Stress mice
Description: FIGS. 16A-16F illustrate the finding that AZD0530 treatment prevents phospho-Tau accumulation after head injury plus stress. […] Boxed area is shown at higher magnification inset. Scale bar, m. FIG. 16B: PHF-1 IHC quantification using ImageJ software measuring total stained area, yielded significant differences amongst the three groups. Data are mean±SEM. n=5/group, each dot is one mouse. One way ANOVA: F(2,12)=9.967, p=0.0028, Tukey's multiple comparison test: SV vs IV: p=0.0077, IV vs IA: p=0.0046. […] Scale bar, 20 μm. […] Data are mean±SEM. n=5/group, each dot is one mouse. […] Scale bar, 20 μm. […] Data are mean±SEM. n=5/group, each dot is one mouse.
Immunohistochemistry was performed as previously described (Kaufman et al., 2015, Ann Neurol 77:953-971) with slight modifications. Forty m coronal sections of the right hemisphere were cut with a Leica VT1000S Vibratome. Antigen retrieval was performed on the forty m free-floating sections by incubating three slices from each mouse in 1× Reveal decloaker buffer (Biocare Medical) in 24-well-plates for 10 minutes at 90° C. in an oven and then cooled down at room temperature for 10 minutes. The antigen retrieval step was done for PHF1, AT8, and GFAP stainings. Sections were permeabilized with 0.1% Triton X-100 at room temperature for 5 minutes for PHF1 and SV2A staining and for 30 minutes for CD68/Ibal, AT8, and GFAP. All sections were blocked with 10% donkey, horse, or goat serum in PBS for one hour at room temperature. The sections were then incubated in primary antibody in 4% donkey, horse, or goat serum in PBS overnight at room temperature. For SV2A and PHF1 stainings, primary antibodies were incubated at 4° C. rather than room temperature. […]
For imaging and analysis of sections from the transgenic Tauopathy studies, Nikon Eclipse Ti Spinning Disc Confocal Microscope was used with a 40×1.3 NA oil-immersion lens in Cargille immersion oil. […] The dentate gyrus, CA1, and CA3 of mice were imaged and the percent positive area for each staining was analyzed with a macro in ImageJ or a pipeline in CellProfiler. […]

[2] = system: APPswe/PS1ΔE9 transgenic mice; experiment: Novel Object Recognition in AD transgenic mice; type: in vivo, mouse; conditions: 5 weeks treatment

Compound: CN1CCN(CCOc2cc(OC3CCOCC3)c3c(Nc4c(Cl)ccc5c4OCO5)ncnc3c2)CC1 [saracatinib, N-(5-chloro-benzo[d][1,3]dioxol-4-yl)-7-(2-(4-methylpiperazin-1-yl)ethoxy)-5-(tetrahydro-2H-pyran-4-yloxy)quinazolin-4-amine]
- PHF-1 immunoreactivity area in cerebral cortex ([1]; 0.5-1.0 mm medial to injury site): dramatically reduced
- GFAP IHC % area ([1]; three groups): did not result in groups differences
- total Tau IHC mean intensity ([1]; three groups): did not show significant differences
- Novel Object Recognition performance [2]: performance equal to the WT mice
